Like-named read-outs stand apart in the source and are kept apart here.
Target: T1, D. desulfuricans AhbA/B (sirohaem decarboxylase) (Desulfovibrio desulfuricans, UniProt B8J364+B8J3A4)
T1 construct: gene Ddes_0286; full-length AhbA (untagged) and AhbB with N-terminal hexa-His tag (kept), coexpressed in E. coli; heterodimer, 40 kDa by gel filtration
T1 sequence (B8J364 1-173): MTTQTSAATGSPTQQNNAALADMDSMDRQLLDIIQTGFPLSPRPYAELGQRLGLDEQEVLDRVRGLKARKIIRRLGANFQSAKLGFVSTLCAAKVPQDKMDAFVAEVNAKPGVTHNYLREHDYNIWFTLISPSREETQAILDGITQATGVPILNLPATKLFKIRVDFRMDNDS
T1 sequence (B8J3A4 1-159): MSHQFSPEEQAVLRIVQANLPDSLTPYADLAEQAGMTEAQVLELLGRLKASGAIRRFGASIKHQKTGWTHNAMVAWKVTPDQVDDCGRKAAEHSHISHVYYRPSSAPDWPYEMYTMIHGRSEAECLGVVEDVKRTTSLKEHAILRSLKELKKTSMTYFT
Assay: anaerobic stopped assay, MS quantification, global fit
Assay type: biochemical
Settings: competitive model of both substrates and product, single active site, 23 μM sirohaem, 2.3 μM enzyme

Substance	Km (intermediate formed in situ from sirohaem, read-out: Km2) [µM]	Km (read-out: Km1) [µM]
monodecarboxysirohaem [MDSH]	9.94 ± 1.19	
sirohaem [SH]		11.7 ± 3.36

Source: paper PMC4145669, “The structure, function and properties of sirohaem decarboxylase - an enzyme with structural homology to a transcription factor family that is part of the alternative haem biosynthesis pathway” (Molecular Microbiology, 2014)
